Laboratory results taken from publication PMC3510438, “The transmembrane tyrosines Y56, Y91 and Y167 play important roles in determining the affinity and transport rate of the rabbit proton-coupled peptide transporter PepT1” (The International Journal of Biochemistry & Cell Biology, 2009).
Where a chain is given by its changes, count along the chain named. Where a SMILES comes first, the peptide text is derived from it.

Experiments:
Y91Q-rPepT1 = target: T1, Y91Q-rPepT1 (Oryctolagus cuniculus, UniProt P36836, Y91Q); assay: Competition of [3H]-D-Phe-L-Gln uptake into Xenopus oocytes, Ki; type: cell-based, rabbit; conditions: pHout 7.4; against 0.4 μM [3H]-D-Phe-L-Gln uptake
T1 construct: expressed in transfected cells; host or cells: Xenopus laevis oocytes injected with cRNA
T1 sequence (P36836 1-707 Y91Q): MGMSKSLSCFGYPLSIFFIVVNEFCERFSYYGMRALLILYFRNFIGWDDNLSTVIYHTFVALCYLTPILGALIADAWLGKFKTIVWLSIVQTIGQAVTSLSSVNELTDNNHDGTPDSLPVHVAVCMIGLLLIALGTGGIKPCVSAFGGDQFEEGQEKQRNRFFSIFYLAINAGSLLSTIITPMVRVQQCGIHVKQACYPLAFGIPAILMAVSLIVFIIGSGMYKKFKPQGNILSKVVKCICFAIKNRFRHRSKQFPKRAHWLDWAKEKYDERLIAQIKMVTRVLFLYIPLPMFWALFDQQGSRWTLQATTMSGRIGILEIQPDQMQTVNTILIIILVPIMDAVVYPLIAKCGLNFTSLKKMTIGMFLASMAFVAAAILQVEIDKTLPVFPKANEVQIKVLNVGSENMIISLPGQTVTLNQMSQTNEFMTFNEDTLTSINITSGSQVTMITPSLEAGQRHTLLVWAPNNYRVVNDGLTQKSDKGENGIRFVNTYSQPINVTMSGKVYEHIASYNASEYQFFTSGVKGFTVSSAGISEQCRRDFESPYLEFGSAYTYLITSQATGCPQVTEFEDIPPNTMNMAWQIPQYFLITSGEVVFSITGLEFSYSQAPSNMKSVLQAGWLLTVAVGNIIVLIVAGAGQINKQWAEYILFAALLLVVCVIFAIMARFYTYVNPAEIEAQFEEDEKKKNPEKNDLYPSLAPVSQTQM
Protocol: (§1) rPepT1 constructs were linearised with XbaI (New England Biolabs, UK) and cRNA generated by in vitro transcription (T7 mMessage mMachine, Ambion, Cambridgeshire, UK). Xenopus laevis oocytes were obtained under MS222 anaesthesia (0.2%, w/v) in accordance with the UK Animals (Scientific Procedures) Act, 1986, and maintained at 18 °C in modified Barth's medium (88 mM NaCl, 1 mM KCl, 0.82 mM MgSO4, 2.4 mM NaHCO3, 0.42 mM CaCl2, 10 mM Hepes, 5 mM sodium pyruvate, 50 μg ml^−1 gentamicin (Fluka, Poole, UK), adjusted to pH 7.6 with 1 M NaOH). Transport measurements were performed at least 72 h after micro-injection of oocytes with 27nl cRNA (1 μg/μl), with medium changed daily.
(§2) Uptake of [^3H]-D-Phe-L-Gln (17.4 Ci/mmole, custom synthesised, Cambridge Research Biochemicals, Stockton-on-Tees, UK) was performed as previously described ([Meredith, 2004]). Briefly, 5 oocytes were incubated in 100 μl of uptake medium (95 mM NaCl, 2 mM KCl, 1 mM CaCl2, 0.42 mM MgCl2, 10 mM Tris/Hepes pH 7.4 or Tris/Mes pH 5.5) with tracer (0.4 μM) [^3H]-D-Phe-L-Gln. After incubation, the oocytes were washed sequentially five times in 1 ml of ice-cold 120 mM NaCl solution, lysed individually with 100 μl 2% (w/v) SDS and liquid scintillation counted. As a control non-injected oocytes were also incubated in uptake medium with D-Phe-L-Gln as above.
(§3) The affinity of wild-type and mutant rPepT1 transporters were assessed by competition studies with 0.4 μM [^3H]-D-Phe-L-Gln and Gly-L-Gln present in the uptake medium in concentrations from 0 to 2 mM using the protocol above, and the Ki calculated using the method of [Deves and Boyd (1989)].

Y91R-rPepT1 = target: T2, Y91R-rPepT1 (Oryctolagus cuniculus, UniProt P36836, Y91R); assay: as above; type: cell-based, rabbit; conditions: pHout 7.4; against 0.4 μM [3H]-D-Phe-L-Gln uptake
T2 construct: expressed in transfected cells; host or cells: Xenopus laevis oocytes injected with cRNA
T2 sequence (P36836 1-707 Y91R): T1 sequence (P36836 1-707 Y91Q) with Q91R
Protocol: as §1, §2, §3

Ki (Y91Q-rPepT1): 30 ± 5 µM
Ki (Y91R-rPepT1): 3 ± 1 µM
Structure (SMILES): NCC(=O)N[C@@H](CCC(N)=O)C(=O)O [Gly-L-Gln] (H-Gly-Gln-OH)
